The subject of series [1] is Escherichia coli (ATCC 53323). As to the kind of experiment: Minimum inhibitory concentration (microdilution). The format is cell-based. The note with it: read-out: MIC E. coli. Here is the method: (§1) Bacteria strains Staphylococcus aureus (ATCC 33807), Bacillus cereus (ATCC 4342), Bacillus subtilis (ATCC 21332), Listeria innocua (ATCC 33090), and Escherichia coli (ATCC 53323) were provided by Ravi Kane’s lab at Rensselaer Polytechnic Institute. Mueller–Hinton broth (MHB) was used for the Staphylococcus aureus culture, while tryptic soy broth (TSB) was used for the other strains. All strains were grown to the stationary phase for 24 h at 37 °C with agitation at 220 rpm. After overnight incubation, cultures were diluted to 5 × 10^6 CFU/mL prior to use.
(§2) The minimum inhibitory concentration (MIC) was determined using the microdilution technique. Modified sophorolipid (SL) derivatives were dissolved in DMSO to make 2 M stock solutions. A dilution series was made by diluting the stock solution to a range of concentrations from 200 µM to 4 µM and a final volume of 100 μL in 10% DMSO/phosphate-buffered saline (PBS) in each well of a 96-well plate. Bacterial inocula (100 μL, 5 × 10^6 CFU/mL) were added to each well, and the final DMSO concentration was 5%. Wells containing the same volumes of DMSO/PBS buffer and culture medium, with and without bacteria, were used as positive and negative controls, respectively. Streptomycin was used for comparison. The plate was then incubated with shaking for 16–30 h at 37 °C to ensure that cultures had reached stationary phase growth and the absorbance readings were recorded at a wavelength of 600 nm using an absorbance microplate reader. Absorbance data from 16–30 h were used to calculate the percent inhibition for each test condition. MIC was recorded as the lowest concentration of drug that inhibited more than 90% of bacterial growth. All assays were carried out in triplicate.

For series [2], the system named is Bacillus cereus (ATCC 4342). As to the kind of experiment: Minimum inhibitory concentration (microdilution). Type of series: cell-based. The note with it: read-out: MIC B. cereus. Here is the method: as §1, §2
Series [3] deals with Listeria innocua (ATCC 33090). As to the kind of experiment: Minimum inhibitory concentration (microdilution). The format is cell-based. To be noted: read-out: MIC L. innocua. Here is the method: as §1, §2
The subject of series [4] is Bacillus subtilis (ATCC 21332). As to the kind of experiment: Minimum inhibitory concentration (microdilution). Type of series: cell-based. The note with it: read-out: MIC B. subtilis. The protocol:
as §1, §2

Series [5] has as its system Staphylococcus aureus (ATCC 33807). As to the kind of experiment: Minimum inhibitory concentration (microdilution). To be noted: read-out: MIC S. aureus. The format is cell-based. Here is the method: as §1, §2
Series [6] concerns M1 activated macrophages (AMOs) from Raw 254.7 murine macrophages. The series is described as follows: In vitro cytotoxicity study. Type of series: cell-based. The note with it: for cytotoxicity ranking: comparison within SL series. From the text: A potential antimicrobial candidate must selectively kill pathogen cells without harming the host mammalian cells. To test the ability of SLs to effectively discriminate between bacteria and mammalian cells, a cytotoxicity assay was previously reported by our team. […] The therapeutic index (TI) is a parameter commonly used to determine potential drug selectivity. […] Generally, membrane-active agents are not considered for systemic administration directly, because of relatively low selectivity. Thus, designing suitable formulations and selecting suitable dose ranges are important in drug development.

Series [7] has as its system B. cereus cell membrane. As to the kind of experiment: Dye leakage / membrane depolarization assay with diS-C3(5). Type of series: cell-based, Bacillus cereus. To be noted: 40 μg/mL (58–60 μM), t = 60 min, diS-C3(5) probe; listed as LSL. The protocol: To probe the role of LSL and the SL-esters as membrane-active agents, dye leakage experiments were carried out. Polymyxin B, a well-known membrane-active agent, was used as a positive control. Polymyxin B is a cyclic peptide with long, hydrophobic tails that can insert into cell membranes causing cell lysis. First, time-course membrane-depolarizing studies were conducted (Figure 3A). […] Upon addition of B. cereus cells at 2 min, a rapid decay in fluorescence intensity was observed due to self-quenching caused by migration of the probe into membranes. Subsequent addition of the SL-esters at 4 min led to a sharp increase in the fluorescence signal, thus indicating enhanced permeability of the cell membrane driven by the presence of the SL derivative.
The disruption of bacterial membranes after treatment with LSL and SL-ester derivatives was tested using a fluorescence probe, diS-C3(5), which can be quenched by the electrically polarized membrane. B. Cereus grown to mid-log phase was adjusted to 2.5 × 10^6 CFU/mL in fresh MHB. […] Fluorescence data were recorded at 670 nm with excitation at 622 nm on Molecular Devices SPECTRAmax Plus 384 UV-VIS High Throughput Microplate Spectrophotometer and normalized against the negative control.

Where [8] appears, read: Escherichia coli, ATCC53323, incubation time 16 h, lowest concentration inhibiting more than 90% of bacterial growth.
The mark [9] stands for this setting: Bacillus cereus, ATCC4342, incubation time 16 h, lowest concentration inhibiting more than 90% of bacterial growth.
Setting [10] is: Listeria innocua, ATCC33090, incubation time 30 h, lowest concentration inhibiting more than 90% of bacterial growth.
The mark [11] stands for this setting: Bacillus subtilis, ATCC21332, incubation time 16 h, lowest concentration inhibiting more than 90% of bacterial growth.
Where [12] appears, read: Staphylococcus aureus, ATCC33807, incubation time 16 h, lowest concentration inhibiting more than 90% of bacterial growth.
The mark [13] stands for this setting: 16 h incubation, procedure of ref 17.
Where [14] appears, read: incubation time 16 h, lowest concentration inhibiting more than 90% of bacterial growth.
Where [15] appears, read: incubation time 30 h, lowest concentration inhibiting more than 90% of bacterial growth.

In brackets after ≈: the same amount, converted by molar mass. Entries after “also recorded” stand apart in the source; their conditions may differ. Where two headings read alike, the source gives them in different places.

As to `CCOC(=O)CCCCCCC/C=C\CCCCCCC(C)OC1OC(COC(C)=O)C(O)C(O)C1OC1OC(CO)C(O)C(O)C1O` (stereo not shown) [ESL-(6′Ac, 6″OH)], the MIC in series [1] (setting [8]) was greater than 200 µM; in series [2] (setting [9]) it was 25 µM (≈ 17.3 µg/mL); in series [3] (setting [10]), 25 µM (≈ 17.3 µg/mL); in series [4] (setting [11]), 25 µM (≈ 17.3 µg/mL).

Consider `CCCOC(=O)CCCCCCC/C=C\CCCCCCC(C)OC1OC(CO)C(O)C(O)C1OC1OC(CO)C(O)C(O)C1O` (stereo not shown) [SL-propyl ester], for which the MIC in series [1] (setting [8]) is greater than 200 µM; in series [2] (setting [9]), 25 µM (≈ 16.6 µg/mL); in series [3] (setting [10]), 25 µM (≈ 16.6 µg/mL); in series [4] (setting [11]) it was 25 µM (≈ 16.6 µg/mL); in series [5] (setting [12]), 100 µM (≈ 66.5 µg/mL). The “concentration up to which low to no cytotoxicity” value in series [6] (setting [13]) fell in the range of 100 to 200 µM.

On to `COC(=O)CCCCCCC/C=C\CCCCCCC(C)OC1OC(CO)C(O)C(O)C1OC1OC(CO)C(O)C(O)C1O` (stereo not shown) [SL-methyl ester], for which the MIC in series [1] (Escherichia coli, ATCC53323, 16 h) is greater than 200 µM; in series [2] (Bacillus cereus, ATCC4342, 16 h), 50 µM (≈ 31.8 µg/mL); in series [2] (setting [14]), 50 µM (≈ 31.8 µg/mL); in series [3] (Listeria innocua, ATCC33090, 30 h) it was 100 µM (≈ 63.7 µg/mL); in series [3] (setting [15]), 100 µM (≈ 63.7 µg/mL); in series [4] (Bacillus subtilis, ATCC21332, 16 h), 50 µM (≈ 31.8 µg/mL). Also, the MIC turned out to be 50 µM (≈ 31.8 µg/mL) in series [4] (setting [14]); 200 µM (≈ 127 µg/mL) in series [5] (Staphylococcus aureus, ATCC33807, 16 h); 200 µM (≈ 127 µg/mL) in series [5] (setting [14]). Moreover, in series [6] (400 µM, 16 h incubation, procedure of ref 17), the cell reduction entry was “no significant cell reduction”. For the same compound, in series [6], the cytotoxicity ranking entry is “lowest toxicity”.

On to `CC(=O)OCC1OC2OC(C)CCCCCC/C=C\CCCCCCCC(=O)OC3C(COC(C)=O)OC(OC2C(O)C1O)C(O)C3O` (stereo not shown) [Lactonic SL, reference compound], for which, in series [7], the “ability to enhance cell membrane permeability (endpoint fluorescence)” value is on record as “non-significant ability to enhance cell membrane permeability; also recorded: failed to enhance membrane permeability”. Further, the MIC is greater than 200 µM in series [1] (setting [8]); greater than 200 µM in series [1] (setting [14]); 25 µM (≈ 17.2 µg/mL) in series [2] (setting [9]); 50 µM (≈ 34.4 µg/mL) in series [3] (setting [10]); 12 µM (≈ 8.27 µg/mL) in series [4] (setting [11]); 25 µM (≈ 17.2 µg/mL) in series [5] (setting [12]). The “reduction in cell viability” value in series [6] (at 50 µM, procedure of ref 17) is “roughly 50%”. Besides, the cytotoxicity ranking entry in series [6] is listed as “highest cytotoxicity”.

`CCCCOC(=O)CCCCCCC/C=C\CCCCCCC(C)OC1OC(CO)C(O)C(O)C1OC1OC(CO)C(O)C(O)C1O` (stereo not shown) [SL-butyl ester]: the MIC was greater than 200 µM in series [1] (setting [8]); 12 µM (≈ 8.15 µg/mL) in series [2] (setting [9]); 12 µM (≈ 8.15 µg/mL) in series [2] (setting [14]); 12 µM (≈ 8.15 µg/mL) in series [3] (setting [10]); 12 µM (≈ 8.15 µg/mL) in series [3] (setting [15]); 12 µM (≈ 8.15 µg/mL) in series [4] (setting [11]). The MIC in series [4] (setting [14]) was determined as 12 µM (≈ 8.15 µg/mL); in series [5] (setting [12]), 100 µM (≈ 67.9 µg/mL); in series [5] (setting [14]), 100 µM (≈ 67.9 µg/mL). In addition, the “concentration up to which low to no cytotoxicity” value in series [6] (setting [13]) fell in the range of 100 to 200 µM.

On to `CCCCCOC(=O)CCCCCCC/C=C\CCCCCCC(C)OC1OC(CO)C(O)C(O)C1OC1OC(CO)C(O)C(O)C1O` (stereo not shown) [SL-pentyl ester], for which the minimal inhibitory concentration (MIC) in series [1] (setting [8]) was greater than 200 µM; in series [2] (setting [9]), 12 µM (≈ 8.31 µg/mL); in series [3] (setting [10]) it was 12 µM (≈ 8.31 µg/mL); in series [4] (setting [11]) it was greater than 200 µM; in series [5] (setting [12]), greater than 200 µM.

As for `CCOC(=O)CCCCCCC/C=C\CCCCCCC(C)OC1OC(CO)C(O)C(O)C1OC1OC(COC(C)=O)C(O)C(O)C1O` (stereo not shown) [ESL-(6′OH, 6″Ac)], the MIC in series [1] (setting [8]) is greater than 200 µM; in series [2] (setting [9]), 25 µM (≈ 17.3 µg/mL); in series [3] (setting [10]), 25 µM (≈ 17.3 µg/mL); in series [4] (setting [11]) it was 25 µM (≈ 17.3 µg/mL).

As to `CCOC(=O)CCCCCCC/C=C\CCCCCCC(C)OC1OC(CO)C(O)C(O)C1OC1OC(CO)C(O)C(O)C1O` (stereo not shown) [SL-ethyl ester], the minimal inhibitory concentration (MIC) in series [1] (setting [8]) is greater than 200 µM; in series [2] (setting [9]), 50 µM (≈ 32.5 µg/mL); in series [3] (setting [10]) it was 50 µM (≈ 32.5 µg/mL); in series [4] (setting [11]) it was 50 µM (≈ 32.5 µg/mL); in series [5] (setting [12]), 200 µM (≈ 130 µg/mL). In addition, the “concentration up to which low to no cytotoxicity” value in series [6] (setting [13]) was in the range of 100 to 200 µM.

With `CCCCCCOC(=O)CCCCCCC/C=C\CCCCCCC(C)OC1OC(CO)C(O)C(O)C1OC1OC(CO)C(O)C(O)C1O` (stereo not shown) [SL-hexyl ester], the MIC in series [1] (setting [8]), in series [2] (setting [9]), in series [2] (setting [14]), in series [3] (setting [10]), in series [3] (setting [15]) and in series [4] (setting [11]) was greater than 200 µM throughout. The MIC in series [4] (setting [14]), in series [5] (setting [12]) and in series [5] (setting [14]) was greater than 200 µM in each case.

Regarding `[H]/N=C(/N)N[C@H]1[C@H](O)[C@@H](O)[C@H](O[C@@H]2O[C@@H](C)[C@](O)(C=O)[C@H]2O[C@@H]2O[C@@H](CO)[C@H](O)[C@@H](O)[C@@H]2NC)[C@@H](N/C(N)=N\[H])[C@@H]1O` [Streptomycin, reference compound], the MIC in series [1] (setting [8]) was found to be 12 µM (≈ 6.98 µg/mL); in series [2] (setting [9]) it was 12 µM (≈ 6.98 µg/mL); in series [3] (setting [10]), 24 µM (≈ 14 µg/mL); in series [4] (setting [11]), 12 µM (≈ 6.98 µg/mL); in series [5] (setting [12]) it was 3 µM (≈ 1.74 µg/mL).

`CCOC(=O)CCCCCCC/C=C\CCCCCCC(C)OC1OC(COC(C)=O)C(O)C(O)C1OC1OC(COC(C)=O)C(O)C(O)C1O` (stereo not shown) [ESL-(6′Ac, 6″Ac)]: the MIC in series [1] (setting [8]) was greater than 200 µM; in series [2] (setting [9]) it was 12 µM (≈ 8.82 µg/mL); in series [3] (setting [10]) it was greater than 200 µM; in series [4] (setting [11]), greater than 200 µM.

These data come from publication PMC8158775, “Structure–Activity Relationship Assessment of Sophorolipid Ester Derivatives against Model Bacteria Strains” (Molecules, 2021).
